Key:
Details in all cases: treatment: drug + dasatinib (fixed dose, not stated); 5 days
UO-31 [1] = test: AUC of dose-response viability curve, drug + dasatinib, normalised to DMSO (arbitrary (AUC of normalised viability)); higher = less growth inhibition
Description: (§1)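 Primary HTS combination arm: 8 RCC cell lines treated with 8 doses (up to 10 uM) of each library drug plus a fixed dose of dasatinib (dose not stated) for 5 days; viability read by CellTiter-Glo and normalised to DMSO. GI50 was fitted with XLfit, AUC is the area under the dose-response curve, and minimum viability is the lowest fraction of DMSO viability across doses.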

786-O [2] = test: as above
Description: as §1

SN12C [3] = test: as above
Description: as §1

TK-10 [4] = test: as above
Description: as §1

CAKI-1 [5] = test: as above
Description: as §1

ACHN [6] = test: as above
Description: as §1

769-P [7] = test: as above
Description: as §1

A498 [8] = test: as above
Description: as §1

UO-31 [9] = test: GI50 of drug in presence of dasatinib; higher = less potent
Description: as §1

786-O [10] = test: as above
Description: as §1

TK-10 [11] = test: as above
Description: as §1

CAKI-1 [12] = test: as above
Description: as §1

ACHN [13] = test: as above
Description: as §1

A498 [14] = test: as above
Description: as §1

UO-31 [15] = test: minimum viability across doses, drug + dasatinib, relative to DMSO (fraction); higher = less growth inhibition
Description: as §1

786-O [16] = test: as above
Description: as §1

SN12C [17] = test: as above
Description: as §1

TK-10 [18] = test: as above
Description: as §1

CAKI-1 [19] = test: as above
Description: as §1

ACHN [20] = test: as above
Description: as §1

769-P [21] = test: as above
Description: as §1

A498 [22] = test: as above
Description: as §1

SN12C [23] = test: GI50 of drug in presence of dasatinib; higher = less potent
Description: as §1

769-P [24] = test: as above
Description: as §1

Row | SMILES | AUC of dose-response viability curve (UO-31 [1]) | AUC of dose-response viability curve (786-O [2]) | AUC of dose-response viability curve (SN12C [3]) | AUC of dose-response viability curve (TK-10 [4]) | AUC of dose-response viability curve (CAKI-1 [5]) | AUC of dose-response viability curve (ACHN [6]) | AUC of dose-response viability curve (769-P [7]) | AUC of dose-response viability curve (A498 [8]) | GI50 of drug (UO-31 [9]) | GI50 of drug (786-O [10]) | GI50 of drug (TK-10 [11]) | GI50 of drug (CAKI-1 [12]) | GI50 of drug (ACHN [13]) | GI50 of drug (A498 [14]) | minimum viability across doses (UO-31 [15]) | minimum viability across doses (786-O [16]) | minimum viability across doses (SN12C [17]) | minimum viability across doses (TK-10 [18]) | minimum viability across doses (CAKI-1 [19]) | minimum viability across doses (ACHN [20]) | minimum viability across doses (769-P [21]) | minimum viability across doses (A498 [22]) | GI50 of drug (SN12C [23]) | GI50 of drug (769-P [24])
1 | CO[C@H]1CC2CC[C@@H](C)[C@@](O)(O2)C(=O)C(=O)N2CCCC[C@H]2C(=O)O[C@H]([C@H](C)C[C@@H]2CCC(OC(=O)C(C)(CO)CO)[C@H](OC)C2)CC(=O)[C@H](C)/C=C(\C)[C@@H](O)[C@@H](OC)C(=O)[C@H](C)C[C@H](C)/C=C/C=C/C=C/1C (stereo in doubt) [Temsirolimus (Torisel)] + Cc1nc(Nc2ncc(C(=O)Nc3c(C)cccc3Cl)s2)cc(N2CCN(CCO)CC2)n1 [dasatinib] | 1.59 | 1.2 | 1.75 | 1.97 | 1.42 | 1.27 | 1.7 | 1.99 | 69.9 nM | < 3 nM | 512 nM | 24.2 nM | 3.25 nM | > 10000 nM | 0.226 | 0.304 | 0.446 | 0.393 | 0.273 | 0.296 | 0.402 | 0.505 | – | –
2 | O=C1NC(=O)/C(=C/c2ccc(-c3ccc(F)cc3O)o2)S1 + Cc1nc(Nc2ncc(C(=O)Nc3c(C)cccc3Cl)s2)cc(N2CCN(CCO)CC2)n1 [dasatinib] | 3.97 | 2.08 | 2.41 | 2.51 | 2.4 | 2.15 | 2.41 | 3.96 | > 10000 nM | – | > 10000 nM | > 10000 nM | > 10000 nM | > 10000 nM | 1.02 | 0.449 | 0.651 | 0.649 | 0.628 | 0.567 | 0.532 | 1.06 | > 10000 nM | > 10000 nM
3 | Cc1ccc(NC(=O)c2cccc(N(C)C)c2)cc1NC(=O)c1ccc(O)cc1 + Cc1nc(Nc2ncc(C(=O)Nc3c(C)cccc3Cl)s2)cc(N2CCN(CCO)CC2)n1 [dasatinib] | 4.5 | 2 | 2.52 | 2.37 | 2.43 | 2.1 | 2.41 | 3.67 | > 10000 nM | – | > 10000 nM | > 10000 nM | > 10000 nM | > 10000 nM | 1.02 | 0.388 | 0.69 | 0.609 | 0.65 | 0.54 | 0.639 | 0.932 | > 10000 nM | > 10000 nM
4 | O=C1NC(=O)C(c2ccccc2[N+](=O)[O-])=C1Nc1ccc(O)c(Cl)c1 + Cc1nc(Nc2ncc(C(=O)Nc3c(C)cccc3Cl)s2)cc(N2CCN(CCO)CC2)n1 [dasatinib] | 3.6 | 1.73 | 2.5 | 2.42 | 2.31 | 2.02 | 2.42 | 3.1 | > 10000 nM | – | > 10000 nM | > 10000 nM | > 10000 nM | > 10000 nM | 0.748 | 0.339 | 0.67 | 0.646 | 0.591 | 0.506 | 0.629 | 0.789 | > 10000 nM | > 10000 nM
5 | Cc1cnc(NC(=O)Nc2cc(Br)c(C)cc2OC[C@@H]2CNCCO2)cn1 + Cc1nc(Nc2ncc(C(=O)Nc3c(C)cccc3Cl)s2)cc(N2CCN(CCO)CC2)n1 [dasatinib] | 3.07 | 1.43 | 2.27 | 2.01 | 1.71 | 1.21 | 1.71 | 2.99 | 833 nM | 172 nM | 559 nM | 388 nM | 36.9 nM | 2120 nM | 0.00521 | 0.00234 | 0.113 | 0.162 | 0.0829 | 0.0412 | 0.0737 | 0.0633 | 2090 nM | –
6 | C=CC(=O)N1CCC[C@@H](n2nc(-c3ccc(Oc4ccccc4)cc3)c3c(N)ncnc32)C1 + Cc1nc(Nc2ncc(C(=O)Nc3c(C)cccc3Cl)s2)cc(N2CCN(CCO)CC2)n1 [dasatinib] | 3.83 | 2 | 2.28 | 1.83 | 2.18 | 1.61 | 1.72 | 4.62 | 8830 nM | – | 264 nM | 3280 nM | 81.4 nM | > 10000 nM | 0.194 | 0.435 | 0.496 | 0.189 | 0.19 | 0.295 | 0.124 | 0.927 | > 10000 nM | 212 nM
7 | CNC(=O)CN1CCC(Oc2cc3c(Nc4cccc(Cl)c4F)ncnc3cc2OC)CC1 [AZD8931] + Cc1nc(Nc2ncc(C(=O)Nc3c(C)cccc3Cl)s2)cc(N2CCN(CCO)CC2)n1 [dasatinib] | 2.96 | 1.88 | 2.3 | 1.99 | 2.11 | 1.24 | 1.69 | 2.24 | 4660 nM | – | 477 nM | 2990 nM | 11.4 nM | 1040 nM | 0.344 | 0.262 | 0.569 | 0.277 | 0.332 | 0.233 | 0.15 | 0.284 | > 10000 nM | 135 nM
8 | COc1cc2ncnc(Nc3ccc(F)c(Cl)c3)c2cc1OCCCN1CCOCC1 [Gefitinib (Iressa)] + Cc1nc(Nc2ncc(C(=O)Nc3c(C)cccc3Cl)s2)cc(N2CCN(CCO)CC2)n1 [dasatinib] | 2.9 | 2.56 | 2.49 | 2.22 | 2.08 | 1.56 | 1.72 | 3.49 | 6180 nM | > 10000 nM | 1070 nM | 1730 nM | 85.7 nM | > 10000 nM | 0.3 | 0.56 | 0.588 | 0.267 | 0.169 | 0.187 | 0.177 | 0.808 | > 10000 nM | –
9 | Cc1ccc(NC(=O)c2ccc(CN3CCN(C)CC3)cc2)cc1Nc1nccc(-c2cccnc2)n1 [Imatinib (Gleevec)] + Cc1nc(Nc2ncc(C(=O)Nc3c(C)cccc3Cl)s2)cc(N2CCN(CCO)CC2)n1 [dasatinib] | 3.84 | 1.67 | 2.55 | 2.45 | 2.22 | 2.06 | 2.43 | 3.24 | > 10000 nM | – | > 10000 nM | 8890 nM | > 10000 nM | > 10000 nM | 0.883 | 0.336 | 0.68 | 0.624 | 0.491 | 0.523 | 0.586 | 0.817 | > 10000 nM | > 10000 nM
10 | Cl.Cl.NC1(c2ccc(-c3nc4ccn5c(=O)[nH]nc5c4cc3-c3ccccc3)cc2)CCC1 [MK-2206 dihydrochloride] + Cc1nc(Nc2ncc(C(=O)Nc3c(C)cccc3Cl)s2)cc(N2CCN(CCO)CC2)n1 [dasatinib] | 2.61 | 2.02 | 2.18 | 2.1 | 1.69 | 1.45 | 2.05 | 2.94 | 1740 nM | 2410 nM | 1110 nM | 111 nM | 24.1 nM | > 10000 nM | 0.0262 | 0.224 | 0.551 | 0.263 | 0.102 | 0.202 | 0.234 | 0.755 | > 10000 nM | –
11 | Cc1cn(-c2cc(NC(=O)c3ccc(C)c(Nc4nccc(-c5cccnc5)n4)c3)cc(C(F)(F)F)c2)cn1 [Nilotinib (AMN-107)] + Cc1nc(Nc2ncc(C(=O)Nc3c(C)cccc3Cl)s2)cc(N2CCN(CCO)CC2)n1 [dasatinib] | 3.2 | 2.77 | 2.55 | 2.53 | 2.38 | 2 | 1.98 | 3.37 | 4880 nM | > 10000 nM | > 10000 nM | 7790 nM | 2890 nM | > 10000 nM | 0.262 | 0.717 | 0.687 | 0.524 | 0.491 | 0.461 | 0.331 | 0.811 | > 10000 nM | –
12 | CNC(=O)c1cc(Oc2ccc(NC(=O)Nc3ccc(Cl)c(C(F)(F)F)c3)c(F)c2)ccn1 [Regorafenib (BAY 73-4506)] + Cc1nc(Nc2ncc(C(=O)Nc3c(C)cccc3Cl)s2)cc(N2CCN(CCO)CC2)n1 [dasatinib] | 2.77 | 2.26 | 2.47 | 2.45 | 2.24 | 2.05 | 2.3 | 3.1 | 4410 nM | – | 5850 nM | 2980 nM | 3320 nM | 2670 nM | 0.122 | 0.471 | 0.434 | 0.415 | 0.125 | 0.153 | 0.37 | 0.415 | 7180 nM | 4040 nM
13 | CC(C)(O)CC(=O)NCCn1ccc2ncnc(Nc3ccc(Oc4cccc(C(F)(F)F)c4)c(Cl)c3)c21 [TAK-285] + Cc1nc(Nc2ncc(C(=O)Nc3c(C)cccc3Cl)s2)cc(N2CCN(CCO)CC2)n1 [dasatinib] | 3.97 | 1.8 | 2.44 | 1.99 | 2.15 | 1.28 | 2.18 | 3.25 | 6240 nM | – | 568 nM | 2350 nM | 12.7 nM | > 10000 nM | 0.224 | 0.338 | 0.556 | 0.346 | 0.311 | 0.172 | 0.22 | 0.83 | > 10000 nM | 1700 nM
14 | C=CC(=O)Nc1cccc(Oc2nc(Nc3ccc(N4CCN(C)CC4)cc3OC)ncc2Cl)c1 [WZ4002] + Cc1nc(Nc2ncc(C(=O)Nc3c(C)cccc3Cl)s2)cc(N2CCN(CCO)CC2)n1 [dasatinib] | 2.67 | 2.22 | 2.29 | 1.97 | 1.87 | 1.37 | 2.02 | 3.2 | 1340 nM | 2490 nM | 617 nM | 1180 nM | 74.8 nM | 9590 nM | 0.0152 | 0.405 | 0.0353 | 0.0404 | 0.145 | 0.0147 | 0.2 | 0.459 | 2420 nM | –

Reference: the supplement of paper PMC8149375
